Here are results for three compounds from paper PMC5766630, “Non-estrogenic Xanthohumol Derivatives Mitigate Insulin Resistance and Cognitive Impairment in High-Fat Diet-induced Obese Mice” (Scientific Reports, 2018).

One experiment concerns MCF-7 cells. The experiment in a line: MCF-7 cell proliferation, sulforhodamine B (SRB) assay. Conditions: 48 h exposure, vs vehicle control; for MCF-7 cell viability/proliferation at low concentrations: 0.001–1 µM. The class given is cell-based, human. Here is the method:
The SRB assay has been used to study the effects of phytochemicals such as XN, DXN and 8-PN on cell proliferation of various cancer cell lines, including MCF-7 cells[91],[92]. SRB is a dye that binds to cellular proteins of adherent cells and the absorbance readings are a measure of the number of viable cells (cell mass) attached to the culture plate after incubation with the test compounds (samples) in comparison with vehicle control cells. The cell mass is then extrapolated as a measurement of cell viability and cell proliferation. Increased proliferation of MCF-7 cells is one of the measures of estrogenicity of phytochemicals. MCF-7 cells were plated at 10,000 cells/well in 96-well plates in DMEM medium containing 10% charcoal-stripped FBS and antibiotics. […] After incubation with the test compounds for 48 h, the cell culture medium was removed from each well of the 96-well plate and the cells were fixed for 1 h with 10% trichloroacetic acid. The cells on the plate were washed five with distilled water, air-dried, and then stained with SRB dye (0.4% w/v in 1% acetic acid). Excess dye was removed by washing the plate five times with 1% acetic acid. The plates were air-dried and the adsorbed dye was solubilized in 10 mM Tris buffer for 5 min on a shaker before reading the optical density (OD) at 565 nm. The percentage cell viability/proliferation was calculated as follows: (ODSample−ODZeroblank)/(ODControl−ODZeroblank)×100. Mean values and the coefficient of variation (CV) from six replicate wells were calculated and a one-way ANOVA was used to compare statistical differences between treated and control cells, with p < 0.05 as the level of significance.
On the technique in general: In SRB staining, fixed cells bind dye roughly in proportion to their protein.

In experiment [1] the test system is skeletal muscle AMPK (pAMPKα/total AMPKα). The experiment in a line: AMPK activation in skeletal muscle by Western blot. It is filed as in vivo, mouse. Conditions: HFD mice, 30 mg/kg/day, 13 weeks, vs control. Here is the method: Approximately 150 mg of frozen liver and muscle tissues were homogenized in tubes containing RIPA buffer with protease and phosphatase inhibitors plus ceramic beads (1.4 mm Ceramic, Bulk Beads, Fisher Scientific, Pittsburgh, PA, USA) using a Precellys 24 (PEQLAB Biotechnology GmbH, Germany). Liver tissue was homogenized for 1 × 30 sec at 6,500 rpm whereas muscle was homogenized for 3 × 30 sec at 6,500 rpm with 20 sec intervals. The homogenates were centrifuged at 15,700 × g for 10 minutes and aliquots (50 µg of protein) of the supernatant (lysate) were separated by SDS-PAGE using 4–15% MP TGX Gels (Bio-Rad # 4561083) and blotted onto nitrocellulose membranes. Membranes were blocked with 5% nonfat milk for 2 h and incubated with antibodies against pAMPK (Phospho-AMPKα (Thr172) Antibody, cat. no. #2531 Cell Signaling Technology, Danvers, MA, USA), AMPK (AMPKα Antibody, cat. no. #2532 Cell Signaling Technology, Danvers, MA, USA), or β-actin (Santa Cruz Biotechnology) for 1 h or overnight. After a second reaction with secondary antibodies (horseradish peroxidase-conjugated IgG goat antirabbit or goat antimouse antibodies), the protein bands on the nitrocellulose membranes were visualized by enhanced chemiluminescence substrate on a Biorad ChemiDocTM MP Imaging System (BioRad Laboratories Inc, Hercules, CA, USA). Band intensities were quantified by densitometry using Image J software.
Background: A western blot detects proteins with antibodies after separation by electrophoresis.

Experiment [2] has as its system C57BL/6J mice fed a high-fat diet. The experiment in a line: Water maze: spatial learning and memory. It is filed as in vivo, mouse. Conditions: for Reached platform location faster than control (latency to first cross), probe trial: probe trial 24 h after last hidden platform trial; for Number of mice that spent more time in the correct quadrant than in any other quadrant / Number of mice that reached the platform location within 35 seconds: probe trial; for Number of mice that spent more time in the correct quadrant than in any other quadrant: control 3 out of 12; for Number of mice that reached the platform location within 35 seconds: control 5 out of 12; for Number of mice that reached the hidden platform at least twice within 50 seconds: trials 6 to 8, control 3 out of 12. Here is the method: After 13 weeks of feeding the experimental diets, general task learning, spatial learning and memory, and long-term spatial memory retention were tested using the water maze, as previously described[97],[98]. Briefly, the water maze consisted of a circular pool, filled with water (24 °C) made opaque white with non-toxic tempera paint (Prang, Dixon Ticonderoga Company, Heathrow, FL, USA). Spatial cues consisted of figures of geometric shape and other items such as toys and pieces of cloth. The cues were placed on the walls of both the room and the sides of the tank and were present throughout all water maze trials. All trials consisted of a maximum of 60 s in the water searching for the platform and 10 s on the platform. […] Trials on the same day were separated by 10 min. Mice were first trained to locate a visible escape platform (plexiglass circle, 12 cm diameter) submerged 2 cm below the surface of the water, by the use of a cue (a colored cylinder, 2.5 cm radius, 8 cm height) during the visible platform trials (1–2). The location of the platform during visible platform trials was moved between trials to avoid procedural biases in task learning to a specific quadrant. Subsequent to the visible platform training, mice were trained to locate the platform without a visible cue during the hidden platform trials (3–8), which required the mice to rely on extra-maze cues for spatial reference and orientation. To analyze learning curves, time to reach the platform (latency) and swim speeds were assessed. Spatial memory retention was assessed 24 h following the conclusion of the eighth trial of hidden platform training in the probe trial (no platform). For data analysis, the pool was divided conceptually into four quadrants. Time spent searching in the target quadrant compared to the time spent in the three non-target quadrants and the latency to the first crossing of the platform location were analyzed. Following the probe trial, mice were administered two additional visible platform trials. Thigmotaxis, a tendency to remain close the walls, is commonly used as an index of anxiety in mice. For thigmotaxis, we analyzed the time (%) mice spent swimming in the outer part of the pool (<10 cm from edge of pool) during the visible trials. Water maze performance was tracked and analyzed using Ethovision software set at 6 samples/s (Noldus Information Technology, Leesburg, VA). Heat map images were generated using EthoVision Heatmap Generator software and representative images were selected from mice closest to the group mean values for time spent in the quadrant target.
Water maze learning curves: data, except for spatial learning, were analyzed using a one-way ANOVA for single measures within animals and a repeated-measures-in-time design ANOVA for repeated measures within animals. To evaluate spatial learning, we first compared at each session the control versus each XN metabolite group. For further analysis of spatial learning, the first 3 sessions were used for training of spatial learning and the last 3 session for spatial learning. […] To show spatial learning, mice had to reach the platform during the last 3 evaluation sessions at least twice within 50 seconds. Fisher’s exact test was used to compare control versus each XN metabolite group.

Each structure is given as a SMILES string.

For the compound `COc1cc(O)c(CC=C(C)C)c(O)c1C(=O)CCc1ccc(O)cc1` [DXN, α,β-Dihydroxanthohumol], in the experiment with MCF-7 cells, the “MCF-7 cell viability/proliferation at 10 µM” value is recorded as “significantly decreased” and the “MCF-7 cell viability/proliferation at low concentrations” value was “did not produce a significant increase”. Further, the “Decrease of skeletal muscle AMPK activation (pAMPK/AMPK)” value (from here on “Decrease … (pAMPK/AMPK)”) in experiment [1] is reported as 22%. Further, the “Slower swim speed versus HFD only” value in experiment [2] (during the hidden platform trials) worked out at 10%. In experiment [2] (hidden platform), the “Reached hidden platform faster than HFD only, average of trials 6 to 8” value worked out at 28%. In addition, in experiment [2], the “Reached platform location faster than control (latency to first cross), probe trial” value worked out at 58%; the “Number of mice that spent more time in the correct quadrant than in any other quadrant” value (from here on “Number of mice that spent more time”) is given as 9 out of 12; the “Number of mice that reached the platform location within 35 seconds” value is “all but one”; the “Number of mice that reached the hidden platform at least twice within 50 seconds” value (from here on “Number … at least twice within 50 seconds”) was 9 out of 12.

As to `COc1cc(O)c(CCC(C)C)c(O)c1C(=O)CCc1ccc(O)cc1` [TXN, tetrahydroxanthohumol], in the experiment on MCF-7 cells, the “MCF-7 cell viability/proliferation at 10 µM” value is reported as “significantly decreased” and the “MCF-7 cell viability/proliferation at low concentrations” value is reported as “did not produce a significant increase”. The “Decrease … (pAMPK/AMPK)” value in experiment [1] worked out at 25%. Further, in experiment [2] (hidden platform), the “Reached hidden platform faster than HFD only, average of trials 6 to 8” value was determined as 45%; the “Reached hidden platform faster than HFD only, trial 6” value was 44%; the “Reached hidden platform faster than HFD only, trial 8” value is 35%. The “Reached hidden platform faster than HFD only, first hidden platform trial (trial #3)” value in experiment [2] (hidden platform trial 3) is 18%. Also, in experiment [2], the “Reached platform location faster than control (latency to first cross), probe trial” value is listed as 45%; the “Number of mice that spent more time” value is listed as “all but one”; the “Number of mice that reached the platform location within 35 seconds” value was “all but one”; the “Number … at least twice within 50 seconds” value is “all”. Also, the “Reached visible platform faster than control, first trial” value in experiment [2] (visible platform trial 1, HFD mice, 30 mg/kg/day, 13 weeks) stood at 24%.

Regarding `COc1cc(O)c(CC=C(C)C)c(O)c1C(=O)/C=C/c1ccc(O)cc1` [XN, 3′-[3,3-dimethylallyl]-2′,4′,4-trihydroxy-6′-methoxychalcone], in the experiment with MCF-7 cells, the “MCF-7 cell viability/proliferation at 10 µM” value is recorded as “significantly decreased” and the “MCF-7 cell viability/proliferation at low concentrations” value is on record as “did not produce a significant increase”. The “Decrease … (pAMPK/AMPK)” value in experiment [1] was 19%. For the same compound, the “More time in the correct (Target) quadrant than control” value in experiment [2] (60-s probe trial) is given as 6.8%. Further, in experiment [2] (hidden platform), the “Reached hidden platform faster than HFD only, trial 6” value was determined as 47%; the “Reached hidden platform faster than HFD only, trial 7” value was found to be 43%; the “Reached hidden platform faster than HFD only, trial 8” value turned out to be 49%. Also, in experiment [2], the “Reached platform location faster than control (latency to first cross), probe trial” value worked out at 45%; the “Number of mice that spent more time” value is on record as “all but one”; the “Number of mice that reached the platform location within 35 seconds” value is reported as “all but one”; the “Number … at least twice within 50 seconds” value is recorded as “all”.
